This is an account of results in patent US20250332173A1, “COMPOUNDS AND METHODS FOR MODULATING NUCLEIC ACID SPLICING” (REMIX THERAPEUTICS INC., priority 2021, published 2025).

For this assay, the system named is Target C. Description: HiBiT protein abundance assay, Target C HiBiT K562 cell line. In kind it is cell-based. Particulars: Homo sapiens; HiBiT lytic detection, modified K562 cells, 24 hours, top dose 10 μM; read-out: Effect on protein abundance, Target C (IC50). As for the experimental part: • Promega Nano-Glo HiBiT Lytic Detection System (cat #N3030) • Corning 384-well TC-treated microplates (cat #3570) • Synthego Engineered Cells Knock-In Clones
Cells were maintained in IMDM with 10% FBS. Before the assay, cells were diluted with […] growth media (IMDM+[…] media) and were seeded in a 384-well plate at a density of 10,000 cells/well (for each cell line listed in Table 5). Each compound was prepared as a 10-point 3-fold serial dilution in DMSO with the top dose at a final concentration of 10 μM in the well. Unmodified K562 cells were added at the previously specified density with DMSO to serve as an assay baseline and positive control (PC) and DMSO only with the respective modified cell lines was added to the negative control (NC) columns. Final DMSO concentration was kept at or below 0.25%. Treated cell plates were placed in an incubator at 37° C. with […] for 24 hours. After 24 hours, 25 μL of Complete HiBit Lytic reagent was added to each well at room temperature (e.g. one plate requiring 10 mL Lytic Buffer, 100 μL LgBiT Protein, 200 μL Lytic Substrate), shaken for 5 minutes at 600 RPM, then left to sit for 10 minutes for signal to stabilize before reading on a Spark Cyto plate reader (Tecan) with a 500 ms measurement time.
To determine compound effects on protein abundance of each target in Table 5, the percent response for each respective cell line was calculated at each compound concentration as follows:
For the normalized response at each concentration, a four-parameter logistical regression was fit to the data and the response was interpolated at the […] to determine a concentration for protein abundance at […] the untreated control.
(In general: The HiBiT peptide binds its large partner to form an active luciferase.)
For orientation: IC50 means the concentration needed to halve the response being measured. With `Cc1cn2nc(-c3ccc4c(=O)n(C5CCNCC5)ncc4n3)cc(C)c2n1` [Compound 1247], the IC50 is under 100 nM.

Turning to `Cn1cc2cc(-c3ccc4c(=O)n(C5CCNC6(CC6)C5)ncc4n3)c(O)cc2n1` (stereo not shown) [Compound 1306], the IC50 fell in the range of 100 to 1000 nM. As to `CN1CCC(n2ncc3nc(-c4cc5cn(C)nc5cc4O)ccc3c2=O)CC1` [Compound 1307], the IC50 was 1000 to 10000 nM. Take `CCN1CCC(n2ncc3nc(-c4cc(C)c5nc(C)cn5n4)ccc3c2=O)CC1` [Compound 1308]: the IC50 lay within 100 to 1000 nM. Take `Cc1cn2nc(-c3ccc4c(=O)n(C5CCN(CCF)CC5)ncc4n3)cc(C)c2n1` [Compound 1309]: the IC50 was 100 to 1000 nM. Take `CCN1CCC(n2ncc3nc(-c4cc5cn(C)nc5cc4O)ccc3c2=O)CC1` [Compound 1310]: the IC50 fell in the range of 1000 to 10000 nM. Regarding `Cc1cn2nc(-c3ccc4c(=O)n(C5CCN(C)CC5)ncc4n3)cc(C)c2n1` [Compound 1311], the IC50 lay in the range of 100 to 1000 nM.
